The test system of this assay is P. Falciparum NF54. Put plainly: Plasmodium falciparum in vitro assay ([3H]-hypoxanthine incorporation). In kind it is cell-based. As to conditions: Plasmodium falciparum, Erythrocyte, P. Falciparum NF54, erythrocytic stages in human red blood cells, 50% human serum. In outline:
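This in vitro antimalarial assay used P. falciparum erythrocytic stages cultured in human erythrocytes and measured [3H]-hypoxanthine incorporation. Radioactivity on the dried filters, placed in plastic foil with 10 mL scintillation fluid, was counted in a Betaplate liquid scintillation counter. Sigmoidal inhibition curves built in Microsoft Excel gave the IC50.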
In the case of `Cc1cc(Nc2ccc(CN(C(=O)/C=C/c3ccc(C(F)(F)F)cc3)C3CCN(Cc4c(C)noc4C)CC3)cc2)ccn1` [Example 44, (E)-N-[1-(3,5-Dimethyl-isoxazol-4-ylmethyl)-piperidin-4-yl]-N-[4-(2-methyl-pyridin-4-ylamino)-benzyl]-3-(4-trifluoromethyl-phenyl)-acrylamide], it took 0.064 µM to reach half-maximal inhibition (IC50).

`Cc1cc(Nc2ccc(CN(C(=O)/C=C/c3ccc(C(F)(F)F)cc3)C3CCN(Cc4ncn5ccccc45)CC3)cc2)ccn1` [Example 45, (E)-N-(1-Imidazo[1,5-a]pyridin-1-ylmethyl-piperidin-4-yl)-N-[4-(2-methyl-pyridin-4-ylamino)-benzyl]-3-(4-trifluoromethyl-phenyl)-acrylamide]: the IC50 worked out at 0.168 µM.

The compound `Cc1cc(Nc2ccc(CN(C(=O)/C=C/c3ccc(C(F)(F)F)cc3)C3CCN(Cc4ncc5ccccn45)CC3)cc2)ccn1` [Example 46, (E)-N-(1-Imidazo[1,5-a]pyridin-3-ylmethyl-piperidin-4-yl)-N-[4-(2-methyl-pyridin-4-ylamino)-benzyl]-3-(4-trifluoromethyl-phenyl)-acrylamide] showed an IC50 of 0.165 µM. This IC50 and that of the compound before are within 1.5-fold of each other.

`Cc1cc(Nc2ccc(CN(C(=O)/C=C/c3ccc(C(F)(F)F)cc3)C3CCN(Cc4ncccn4)CC3)cc2)ccn1` [Example 47, (E)-N-[4-(2-Methyl-pyridin-4-ylamino)-benzyl]-N-(1-pyrimidin-2-ylmethyl-piperidin-4-yl)-3-(4-trifluoromethyl-phenyl)-acrylamide] came in with a 50% inhibitory concentration (IC50) of 0.345 µM.

Turning to `Cc1cc(Nc2ccc(CN(C(=O)/C=C/c3ccc(C(F)(F)F)cc3)C3CCN(Cc4cccnc4)CC3)cc2)ccn1` [Example 48, (E)-N-[4-(2-Methyl-pyridin-4-ylamino)-benzyl]-N-(1-pyridin-3-ylmethyl-piperidin-4-yl)-3-(4-trifluoromethyl-phenyl)-acrylamide], the half-maximal inhibitory concentration (IC50) was found to be 0.101 µM.

In turn, `Cc1cc(Nc2ccc(CN(C(=O)/C=C/c3ccc(C(F)(F)F)cc3)C3CCN(Cc4cncnc4)CC3)cc2)ccn1` [Example 49, (E)-N-[4-(2-Methyl-pyridin-4-ylamino)-benzyl]-N-(1-pyrimidin-5-ylmethyl-piperidin-4-yl)-3-(4-trifluoromethyl-phenyl)-acrylamide] showed a half-inhibitory concentration (IC50) of 0.28 µM.

Consider `Cc1cc(Nc2ccc(CN(C(=O)/C=C/c3ccc(C(F)(F)F)cc3)C3CCN(Cc4cnn(C)c4)CC3)cc2)ccn1` [Example 50, (E)-N-[1-(1-Methyl-1H-pyrazol-4-ylmethyl)-piperidin-4-yl]-N-[4-(2-methyl-pyridin-4-ylamino)-benzyl]-3-(4-trifluoromethyl-phenyl)-acrylamide], for which the half-maximal inhibitory concentration (IC50) was determined as 0.091 µM.

For the compound `Cc1cc(Nc2ccc(CN(C(=O)/C=C/c3ccc(C(F)(F)F)cc3)C3CCN(Cc4cnc(C)nc4)CC3)cc2)ccn1` [Example 51, (E)-N-[4-(2-Methyl-pyridin-4-ylamino)-benzyl]-N-[1-(2-methyl-pyrimidin-5-ylmethyl)-piperidin-4-yl]-3-(4-trifluoromethyl-phenyl)-acrylamide], the IC50 came to 0.268 µM.

In the case of `Cc1cc(Nc2ccc(CN(C(=O)/C=C/c3ccc(C(F)(F)F)cc3)C3CCN(Cc4cnc(C)n4C)CC3)cc2)ccn1` [Example 52, (E)-N-[1-(2,3-Dimethyl-3H-imidazol-4-ylmethyl)-piperidin-4-yl]-N-[4-(2-methyl-pyridin-4-ylamino)-benzyl]-3-(4-trifluoromethyl-phenyl)-acrylamide], the IC50 was found to be 0.143 µM. This IC50 lies about 1.9-fold lower than the previous one.

Turning to `Cc1cc(Nc2ccc(CN(C(=O)/C=C/c3ccc(C(F)(F)F)cc3)C3CCN(Cc4ccc(O)c(CN(C)C)c4)CC3)cc2)ccn1` [Example 53, (E)-N-[1-(3-Dimethylaminomethyl-4-hydroxy-benzyl)-piperidin-4-yl]-N-[4-(2-methyl-pyridin-4-ylamino)-benzyl]-3-(4-trifluoromethyl-phenyl)-acrylamide], inhibition was half-maximal at 0.012 µM (IC50).

Take `CCN(CC)Cc1cc(CN2CCC(N(Cc3ccc(Nc4ccnc(C)c4)cc3)C(=O)/C=C/c3ccc(C(F)(F)F)cc3)CC2)ccc1O` [Example 54, (E)-N-[1-(3-Diethylaminomethyl-4-hydroxy-benzyl)-piperidin-4-yl]-N-[4-(2-methyl-pyridin-4-ylamino)-benzyl]-3-(4-trifluoromethyl-phenyl)-acrylamide]: the IC50 is below 0.008 µM.

`CN1CCC(N2CCC[C@H](N(Cc3ccc(N(C)c4ccncc4)cc3)C(=O)/C=C/c3ccc(C(F)(F)F)cc3)C2)CC1` [Example 55, (S,E)-N-(4-(methyl(pyridin-4-yl)amino)benzyl)-N-(1′-methyl-[1,4′-bipiperidin]-3-yl)-3-(4-(trifluoromethyl)phenyl)acrylamide] registered an IC50 of 0.012 µM. That is a double-digit nanomolar value.

In the case of `CN1CCC(N2CCC[C@@H](N(Cc3ccc(N(C)c4ccncc4)cc3)C(=O)/C=C/c3ccc(C(F)(F)F)cc3)C2)CC1` [Example 56, (R,E)-N-(4-(methyl(pyridin-4-yl)amino)benzyl)-N-(1′-methyl-[1,4′-bipiperidin]-3-yl)-3-(4-(trifluoromethyl)phenyl)acrylamide], the IC50 came to 0.011 µM.

In the case of `CN(c1ccncc1)c1ccc(CN(C(=O)/C=C/c2ccc(C(F)(F)F)cc2)[C@H]2CCCN(C3CCCC3)C2)cc1` [Example 58, (S,E)-N-(1-cyclopentylpiperidin-3-yl)-N-(4-(methyl(pyridin-4-yl)amino)benzyl)-3-(4-(trifluoromethyl)phenyl)acrylamide], it took 0.149 µM to reach half-maximal inhibition (IC50).

`CN(c1ccncc1)c1ccc(CN(C(=O)/C=C/c2ccc(C(F)(F)F)cc2)[C@@H]2CCCN(C3CCCC3)C2)cc1` [Example 59, (R,E)-N-(1-cyclopentylpiperidin-3-yl)-N-(4-(methyl(pyridin-4-yl)amino)benzyl)-3-(4-(trifluoromethyl)phenyl)acrylamide]: half-maximal inhibition (IC50) required 0.08 µM.

For `CC(C)CCN1CCC[C@H](N(Cc2ccc(N(C)c3ccncc3)cc2)C(=O)/C=C/c2ccc(C(F)(F)F)cc2)C1` [Example 61, (S,E)-N-(1-isopentylpiperidin-3-yl)-N-(4-(methyl(pyridin-4-yl)amino)benzyl)-3-(4-(trifluoromethyl)phenyl)acrylamide], half-maximal inhibition (IC50) required 0.082 µM.

Turning to `CC(C)CCN1CCC[C@@H](N(Cc2ccc(N(C)c3ccncc3)cc2)C(=O)/C=C/c2ccc(C(F)(F)F)cc2)C1` [Example 62, (R,E)-N-(1-isopentylpiperidin-3-yl)-N-(4-(methyl(pyridin-4-yl)amino)benzyl)-3-(4-(trifluoromethyl)phenyl)acrylamide], half-maximal inhibition (IC50) required 0.07 µM.

Regarding `CN1CCC(N2CCC3(CCC(N(Cc4ccc(N(C)c5ccncc5)cc4)C(=O)/C=C/c4ccc(C(F)(F)F)cc4)CC3)CC2)CC1` [Example 65, (E)-N-(4-(methyl(pyridin-4-yl)amino)benzyl)-N-(3-(1-methylpiperidin-4-yl)-3-azaspiro[5.5]undecan-9-yl)-3-(4-(trifluoromethyl)phenyl)acrylamide], the IC50 came out at 0.021 µM. This IC50 lies about 3.3-fold lower than the previous one.

Take `CN(c1ccncc1)c1ccc(CN(C(=O)/C=C/c2ccc(C(F)(F)F)cc2)C2CCC3(CC2)CCN(C2CCCC2)CC3)cc1` [Example 67, (E)-N-(3-cyclopentyl-3-azaspiro[5.5]undecan-9-yl)-N-(4-(methyl(pyridin-4-yl)amino)benzyl)-3-(4-(trifluoromethyl)phenyl)acrylamide]: the midpoint of inhibition, the IC50, lay at 0.04 µM.

In the case of `CC(C)CCN1CCC2(CCC(N(Cc3ccc(N(C)c4ccncc4)cc3)C(=O)/C=C/c3ccc(C(F)(F)F)cc3)CC2)CC1` [Example 69, (E)-N-(3-isopentyl-3-azaspiro[5.5]undecan-9-yl)-N-(4-(methyl(pyridin-4-yl)amino)benzyl)-3-(4-(trifluoromethyl)phenyl)acrylamide], the IC50 stood at 0.041 µM. The IC50 values of the last two compounds are within 1.5-fold of each other.

With `CN1CCC(N2CC3(CC(N(Cc4ccc(N(C)c5ccncc5)cc4)C(=O)/C=C/c4ccc(C(F)(F)F)cc4)C3)C2)CC1` [Example 73, (E)-N-(4-(methyl(pyridin-4-yl)amino)benzyl)-N-(2-(1-methylpiperidin-4-yl)-2-azaspiro[3.3]heptan-6-yl)-3-(4-(trifluoromethyl)phenyl)acrylamide], the IC50 came to 0.042 µM.

Compound `CN(c1ccncc1)c1ccc(CN(C(=O)/C=C/c2ccc(C(F)(F)F)cc2)C2CC3(C2)CN(C2CCCC2)C3)cc1` [Example 74, (E)-N-(2-cyclopentyl-2-azaspiro[3.3]heptan-6-yl)-N-(4-(methyl(pyridin-4-yl)amino)benzyl)-3-(4-(trifluoromethyl)phenyl)acrylamide] displayed an IC50 of 0.041 µM.

Regarding `CC(C)CCN1CC2(CC(N(Cc3ccc(N(C)c4ccncc4)cc3)C(=O)/C=C/c3ccc(C(F)(F)F)cc3)C2)C1` [Example 75, (E)-N-(2-isopentyl-2-azaspiro[3.3]heptan-6-yl)-N-(4-(methyl(pyridin-4-yl)amino)benzyl)-3-(4-(trifluoromethyl)phenyl)acrylamide], it took 0.03 µM to reach half-maximal inhibition (IC50).

As for `CCN1CCC[C@H](N(Cc2ccc(N(C)c3ccncc3)cc2)C(=O)/C=C/c2ccc(C(F)(F)F)cc2)C1` [Example 82, (E)-N-((S)-1-Ethyl-piperidin-3-yl)-N-[4-(methyl-pyridin-4-yl-amino)-benzyl]-3-(4-trifluoromethyl-phenyl)-acrylamide], the IC50 is 0.14 µM.

As to `CC(C)N1CCC[C@H](N(Cc2ccc(N(C)c3ccncc3)cc2)C(=O)/C=C/c2ccc(C(F)(F)F)cc2)C1` [Example 83, (E)-N-((S)-1-Isopropyl-piperidin-3-yl)-N-[4-(methyl-pyridin-4-yl-amino)-benzyl]-3-(4-trifluoromethyl-phenyl)-acrylamide], the 50% inhibitory concentration (IC50) stood at 0.12 µM.

For `Cc1cc(Nc2ccc(CN(C(=O)/C=C/c3ccc(C(F)(F)F)cc3)C3CCN(C4CCCC4)CC3)cc2)c2ccccc2n1` [Example 85, (E)-N-(1-Cyclopentyl-piperidin-4-yl)-N-[4-(2-methyl-quinolin-4-ylamino)-benzyl]-3-(4-trifluoromethyl-phenyl)-acrylamide], the IC50 stood at 0.043 µM.

`O=C(/C=C/c1ccc(C(F)(F)F)cc1)N(Cc1ccc(Nc2ccncc2)cc1)C1CCN(C2CCCC2)CC1` [Example 86, (E)-N-(1-Cyclopentyl-piperidin-4-yl)-N-[4-(pyridin-4-ylamino)-benzyl]-3-(4-trifluoromethyl-phenyl)-acrylamide] showed a 50% inhibitory concentration (IC50) of 0.043 µM.

For the origin of these results see patent US9637473B2, “Acrylamide derivatives as antimalarial agents” (priority 2013, dated 2017).
